The source of these data is publication PMC6516660, “Construction of a pathway to C50-ε-carotene” (PLoS ONE, 2019).

What all share (assay): carotenoid production in E. coli, HPLC-PDA-MS
Common to all, as to assay type: cell-based

Assay [1] deals with T1, AtE (At-y2) (Arabidopsis thaliana, UniProt Q38932, L448H).
T1 construct: gene LUT2; full-length (transit peptide kept), pUCara plasmid, expressed in E. coli XL1-Blue with carotenoid pathway enzymes
T1 sequence (Q38932 1-524 L448H): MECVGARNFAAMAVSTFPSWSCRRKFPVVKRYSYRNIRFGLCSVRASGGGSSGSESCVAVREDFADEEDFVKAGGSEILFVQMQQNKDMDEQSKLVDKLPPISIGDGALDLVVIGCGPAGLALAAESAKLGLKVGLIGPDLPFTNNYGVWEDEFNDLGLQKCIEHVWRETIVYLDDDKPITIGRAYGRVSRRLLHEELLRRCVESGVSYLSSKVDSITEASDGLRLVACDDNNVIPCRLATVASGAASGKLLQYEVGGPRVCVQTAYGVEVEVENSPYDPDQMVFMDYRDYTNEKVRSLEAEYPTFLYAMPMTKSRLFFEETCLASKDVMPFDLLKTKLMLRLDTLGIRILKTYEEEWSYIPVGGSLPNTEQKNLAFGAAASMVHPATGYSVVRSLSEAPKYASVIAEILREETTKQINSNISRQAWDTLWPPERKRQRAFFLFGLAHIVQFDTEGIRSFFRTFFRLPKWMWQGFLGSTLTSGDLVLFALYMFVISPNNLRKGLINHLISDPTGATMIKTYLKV
The following applies: E. coli making C40-lycopene.

The target in assay [2] is T2, LsE (Lactuca sativa, UniProt Q9AXK7).
T2 construct: pUCara plasmid, expressed in E. coli XL1-Blue with carotenoid pathway enzymes
T2 sequence (Q9AXK7 1-533 limits assumed): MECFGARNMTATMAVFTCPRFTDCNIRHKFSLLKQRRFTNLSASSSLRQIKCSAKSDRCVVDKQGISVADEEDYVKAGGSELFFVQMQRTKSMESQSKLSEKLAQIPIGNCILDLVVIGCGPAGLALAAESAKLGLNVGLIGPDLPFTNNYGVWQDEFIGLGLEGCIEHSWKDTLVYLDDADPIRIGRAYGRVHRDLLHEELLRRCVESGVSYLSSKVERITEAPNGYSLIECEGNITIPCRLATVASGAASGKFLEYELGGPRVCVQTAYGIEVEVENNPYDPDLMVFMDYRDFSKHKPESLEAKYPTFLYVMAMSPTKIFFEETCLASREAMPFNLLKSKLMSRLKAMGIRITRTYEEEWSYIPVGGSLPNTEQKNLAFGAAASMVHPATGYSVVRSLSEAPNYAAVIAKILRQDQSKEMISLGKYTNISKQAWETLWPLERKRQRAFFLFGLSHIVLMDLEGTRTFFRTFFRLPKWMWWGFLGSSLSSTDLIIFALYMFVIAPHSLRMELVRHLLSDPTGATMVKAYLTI
The following applies: E. coli making C40-lycopene; product ε,ε-carotene.

The target in assay [3] is T3, AtE (At-y2) (Arabidopsis thaliana, UniProt Q38932).
T3 construct: gene LUT2; full-length (transit peptide kept), pUCara plasmid, expressed in E. coli XL1-Blue with carotenoid pathway enzymes
T3 sequence (Q38932 1-524): T1 sequence (Q38932 1-524 L448H) with H448L

Positions count from the first letter of the chain named.

On to `CC(C)=CCC/C(C)=C/C=C/C(C)=C/C=C/C(C)=C/C=C/C=C(C)/C=C/C=C(C)/C=C/C=C(\C)CCC=C(C)C` [C40-lycopene], for which the “carotenoid production in E. coli, HPLC-PDA-MS” value in assay [1] is “very subtle effect (if not none) of L448H also in the natural C40 pathway”; in assay [2] it was “LsE could equally and efficiently act on both sides of C40-lycopene (Fig 3B)”; in assay [3] (E. coli making C40-lycopene, product δ-carotene (ε,ψ-carotene)) it was “this enzyme fully consumed its natural substrate C40-lycopene and yielded ε, ψ-carotene”.

As for `CC(C)=CCC/C(C)=C/C=C/C(C)=C/C=C/C(C)=C/C=C/C(C)=C/C=C/C=C(C)/C=C/C=C(C)/C=C/C=C(C)/C=C/C=C(\C)CCC=C(C)C` [C50-lycopene], in assay [3] (E. coli making C50-lycopene, TB medium, L-arabinose induction, product C50-ε,ε-carotene), the “carotenoid production in E. coli, HPLC-PDA-MS” value was “AtE cyclized both ends of the C50-lyopene (Fig 2C)”.
